Measured values as given in paper PMC5093939, “Teicoplanin-based antimicrobial therapy in Staphylococcus aureus bone and joint infection: tolerance, efficacy and experience with subcutaneous administration” (BMC Infectious Diseases, 2016).
Like-named read-outs stand apart in the source and are kept apart here. Marks after values point to notes of the source that are not given here.

What was measured:
[1] = in vivo
Excerpt: Patients diagnosed with staphylococcal BJI were identified by cross-referencing the prospective maintained databases of the regional referral center for BJI and the bacteriology laboratory, which list exhaustively all strains isolated from osteoarticular samples since 2001. Patients with diabetic foot- and decubitus ulcer-related BJI were excluded, as they require a specific management. If patients presented more than one osteoarticular infected site, they were considered as independent events for cohort description and outcome analysis, but pooled for tolerance and pharmacologic evaluation. For each patient, data were collected from medical records, nursing charts and biological software in an anonymous standardized case report form.
A Cmin >15 mg/L was taken as an acceptable therapeutic target. Patients with a Cmin >25 mg/L were considered as overexposure.
For intravenous (IV) administration, each dose was diluted in 100 mL of isotonic saline solution and administrated over a 30-min period. For subcutaneous (SC) injections, each dose was diluted in 50 mL of isotonic saline solution and delivered by a nurse during a 30- to 60-min gravity infusion using a butterfly disposable needle.
Descriptive statistics were used to estimate the frequencies of the study variables, described as percentages (%) for dichotomous variables, and medians (interquartile range (IQR)) for continuous variables. For the percentage calculation of each variable, the number of missing values was excluded from the denominator. Non-parametric statistical methods were used to compare the study groups (Chi-squared test, Fisher exact test and Mann–Whitney U test), as appropriate. […] Clinically pertinent variables with a p-value <0.15 in the univariate analysis were included in the final multivariate models. A value of p <0.05 was considered as significant. All analyses were performed using SPSS software version 19.0 (SPSS, Chicago, IL).

[2] = tested on: Staphylococcus aureus bone and joint infection; experiment: Outcome (treatment failure) of teicoplanin-treated S. aureus bone and joint infection and its determinants; format: in vivo, human
Excerpt: BJI diagnosis was based upon the existence of clinical and biological evidences of infection, and at least one reliable bacteriological sample positive for S. aureus (i.e., percutaneous joint fluid aspiration, surgical sample, and/or blood culture). BJI were classified according to: i) the existence of orthopedic implant (i.e. joint prosthesis, peripheral or vertebral osteosynthesis); and ii) progression of infection, differentiating acute (≤3 weeks) versus chronic (>3 weeks) infection, calculated from the presumed date of inoculation (i.e., date of device implantation for postoperative orthopaedic device-related infection (ODI), or date of symptom onset for native BJI) up to diagnosis.
Treatment failure was defined as persisting infection under appropriate antimicrobial therapy, relapse after the interruption of antimicrobial therapy, necessity of surgical revision on the account of persisting septic focus ≥5 days after the first intervention, superinfections, and/or fatal outcome if BJI-related.

[3] = cited from earlier work
Excerpt: However, the incidence of AE was probably been underestimated due to the retrospective nature of our study (memory bias for non-severe AE). Indeed, in the prospective study of LeFrock et al, the rate of AE was 35 %, requiring discontinuation of treatment in 17 % of the cases. […] The retrospective design may result in underestimating non-serious AE such as injection site reactions.

[4] = ref 12 (LeFrock et al), cited from earlier work
Excerpt: These current difficulties in the field of BJI explain the limited and controversial data available on the efficacy of teicoplanin in staphylococcal BJI. In past studies, treatment success rate ranged from 53 to 91 % [11–14]. The low success rate observed in our study (60 %) may be explained by several factors. First, there is a significant selection bias as patients were recruited in a reference center dedicated to manage complex BJI with a high-risk of failure. In addition, most of past studies included native BJI with a relatively short follow-up (<1 year). Finally, pharmacodynamics par ...

S. aureus isolates = experiment: Susceptibility of staphylococcal isolates to teicoplanin; format: cell-based, Staphylococcus aureus; conditions: all S. aureus isolates of the 65 episodes (MRSA 16.9 %); exact MIC not available; breakpoints ref 23
[5] = Teicoplanin-related adverse events (CTCAE) and their determinants; set-up: species or system human; conditions: in vivo
Excerpt: Teicoplanin-related adverse events (AE) occurring during follow-up were notified and classified according to the Common Terminology Criteria for Adverse Events (CTCAE, National Cancer Institute, 2003). Teicoplanin accountability in the AE occurrence was left to the clinician appreciation, with the help of a pharmacovigilance specialist in doubtful cases.

In the case of teicoplanin, the “Patients obtaining Cmin >15 mg/L within the first 2 weeks of treatment” value [1] is reported as 66.1%, the “Subcutaneous versus intravenous route: pharmacokinetics and tolerance” value [1] is reported as “no difference” and the “Delay for Cmin >15 mg/L” value ([1]; iv) is reported as 9 (6–13) days. The “Initial Cmin <15 mg/L” value ([1]; iv) was 29 (74.4 %), the “Initial Cmin >25 mg/L” value ([1]; iv) was 0 (0 %) and the “Overdose (day 1 to 14), Cmin >25 mg/L” value ([1]; iv) was 8 (16.0 %). The “Delay for Cmin >15 mg/L” value ([1]; sc) was 7 (4.5–9.5) days, the “Initial Cmin <15 mg/L” value ([1]; sc) was 7 (70.0 %) and the “Initial Cmin >25 mg/L” value ([1]; sc) was 0 (0 %). For the same substance, the “Overdose (day 1 to 14), Cmin >25 mg/L” value ([1]; sc) was 2 (14.3 %), the “Influence of administration route on outcome” value ([2]; IV versus SC, treatment failure analysis) was “did not influence the outcome” and the Limb amputations ([2]; among iterative surgical procedures, 65 episodes) was “two”. The “Risk of toxicity with dose increase” value ([3]; dose increase from 400 to 600 mg/day) was “not associated with an increased risk of toxicity”, the “Severe local reaction (grade ≥3)” value ([3]; prospective evaluation of SC teicoplanin in 30 patients, ref 29 (El Samad et al)) was “no severe local reaction” and the Cmin ([4]; average after 6 days, 6 mg/kg/day after 5 loading doses of 6 mg/kg/12 h) was 10000 ng/mL. The Cmin ([4]; average from the third day, 12 mg/kg/day after 5 loading doses of 12 mg/kg/12 h) was 20000 ng/mL, the “Susceptibility of staphylococcal isolates” value (S. aureus isolates) was “susceptible” and the “Number of cutaneous rashes” value [5] was 5. For the same substance, the “Number of episodes of headache” value [5] was 1, the Number of pancytopenia [5] was “one” and the “OR (95%CI) of teicoplanin-related adverse event: administration route switch” value [5] was 0.221 (0.023-2.124). For the same substance, the “OR (95%CI) of teicoplanin-related adverse event: delay for Cmin >15 mg/L (days)” value [5] was 1.019 (0.769-1.351), the “OR (95%CI) of teicoplanin-related adverse event: initial Cmin (day 3 to 5, mg/L)” value [5] was 0.818 (0.656-1.020) and the “OR (95%CI) of teicoplanin-related adverse event: initial Cmin <15 mg/L” value [5] was 2.037 (0.213-19.494). For the same substance, the “OR (95%CI) of teicoplanin-related adverse event: loading dose (mg/kg/12h)” value [5] was 1.850 (0.001-4228.586)^b, the “OR (95%CI) of teicoplanin-related adverse event: loading dose given” value [5] was 0.889 (0.091-8.646) and the “OR (95%CI) of teicoplanin-related adverse event: maintenance dose (mg/kg/24h)” value [5] was 5.150 (0.004-6359.356)^b. For the same substance, the “OR (95%CI) of teicoplanin-related adverse event: number of loading injections” value [5] was 0.870 (0.559-1.354), the “Resolution of AE” value [5] was “Yes” and the “OR (95%CI) of teicoplanin-related adverse event: IV route” value ([5]; iv) was 0.571 (0.093-3.508). The “Teicoplanin-related AE” value ([5]; iv) was 4 (8.7 %) and the “Teicoplanin-related AE” value ([5]; sc) was 2 (14.3 %).
